According to patent US9763991B2, “Composition for the treatment of neurobehavioral disorders” (Cannabis Science International Holding B.V., priority 2013, dated 2017):

What was measured:
C57BL6 mice [1] = assay: Safety data, body weight and organ weight after oral dosing (gavage) of Cannabinol; assay type: in vivo, mouse
Protocol: (§1) The experiment is designed to test a range of concentrations around the equivalent previously tested in humans for single-dose kinetics. Animal experiments were performed following the directive 2010/63/EU on the protection of animals used for scientific purposes.
(§2) 6 groups of 5-6 male C57BL6 of approximately 28 g body weight (range 27-30 g) with the use of one cage for 3 mice: Group 0: Pure Olive Oil, Group 1: CBN at 0.01 mg/Kg body weight, Group 2: CBN at 0.05 mg/Kg body weight, Group 3: CBN at 0.1 mg/Kg body weight, Group 4: CBN at 0.25 mg/Kg body weight and Group 5: CBN at 0.50 mg/Kg body weight
The volume that can be administered to the animal should not exceed 10 ml/kg. For a mouse of 20 g the maximum volume corresponds to 0.2 ml. For this procedure a volume of 0.1 ml will be used (half of the maximum volume). 1 ml of each stock solution (cannabinol, CBN 1-5 and pure olive oil, POO) was dispensed into Falcon vials. Prior to the administration, the weight of each mouse was recorded and the appropriate amount of cannabinol solution was determined. For the POO group always 0.1 ml was dispensed in 6 an eppendorf vessel, for the other experimental groups transfer the amounts of CBN 1-5 and POO according to table 2 were used in an eppendorf vial. The amounts to be administered were adjusted depending on mouse group and individual weights.
Monitor the animal for potential complications: Esophagitis (inflammation of the oesophagus), perforation of the oesophagus or trachea, damage to the cardiac sphincter (upper stomach sphincter) insertion of needle and solution into the lungs, lung perforation, damage to the oral cavity, aspiration of solution into the lungs from regurgitation, traumatic injuries related to improper restrain.
The mean weights (and standard deviations) of spleen, liver and kidney from all mice groups at sacrifice are monitored.

C57BL6 mice [2] = assay: Sleep monitoring after oral dosing (gavage) of Cannabinol in olive oil; assay type: in vivo, mouse; conditions: all 5 doses (0.01-0.5 mg/Kg) by oral gavage in olive oil, single administration at 3 consecutive days, vs pure olive oil
Protocol: as §1, §2
Solutions (named CBN 0, CBN 1, CBN 2, CBN 3, CBN 4, CBN 5, Pure Olive Oil) having different cannabinol concentrations dissolved in olive oil were prepared in sterile conditions, under a laminar flood hood. Pure olive oil was used as a negative control.
The volume that can be administered to the animal should not exceed 10 ml/kg. For a mouse of 20 g the maximum volume corresponds to 0.2 ml. For this procedure a volume of 0.1 ml will be used (half of the maximum volume). 1 ml of each stock solution (cannabinol, CBN 1-5 and pure olive oil, POO) was dispensed into Falcon vials. Prior to the administration, the weight of each mouse was recorded and the appropriate amount of cannabinol solution was determined. […]

**Q.** With CCCCCc1cc(O)c2c(c1)OC(C)(C)c1ccc(C)cc1-2 [Cannabinol] as the molecule, how does the “aggressive behaviour and clinical alterations (tremors)” value (C57BL6 mice [1]; 0.01-0.5 mg/Kg daily by oral gavage, male C57BL6 mice) read?
**A.** No presence of aggressive behaviour, neither evident clinical alterations

**Q.** What about the “liver and kidney weights at sacrifice” value (C57BL6 mice [1]; among experimental groups, 0.01-0.5 mg/Kg oral) of the same molecule?
**A.** No significant changes

**Q.** What about the body weight change (C57BL6 mice [1]; within experimental groups with time or among groups at fixed time, 0.01-0.5 mg/Kg oral) of the same molecule?
**A.** No significant changes

**Q.** What about the “number of mice sleeping 30 minutes after administration” value (C57BL6 mice [2]) of the same molecule?
**A.** increased significantly
